Laboratory results published in patent US20100087432A1, “PYRROLE DERIVATIVES HAVING CRTH2 RECEPTOR ANTAGONIST ACTIVITY” (priority 2004, published 2010).

What was measured:
[1] = molecular target: T1, human CRTh2 (Homo sapiens, UniProt Q9Y5Y4); assay: Filtration binding assay ([3H]-PGD2 competition on CHO.K1-CRTh2 membranes); details: [3H]-PGD2 2.5 nM, Cheng-Prussoff
T1 sequence (Q9Y5Y4 1-395): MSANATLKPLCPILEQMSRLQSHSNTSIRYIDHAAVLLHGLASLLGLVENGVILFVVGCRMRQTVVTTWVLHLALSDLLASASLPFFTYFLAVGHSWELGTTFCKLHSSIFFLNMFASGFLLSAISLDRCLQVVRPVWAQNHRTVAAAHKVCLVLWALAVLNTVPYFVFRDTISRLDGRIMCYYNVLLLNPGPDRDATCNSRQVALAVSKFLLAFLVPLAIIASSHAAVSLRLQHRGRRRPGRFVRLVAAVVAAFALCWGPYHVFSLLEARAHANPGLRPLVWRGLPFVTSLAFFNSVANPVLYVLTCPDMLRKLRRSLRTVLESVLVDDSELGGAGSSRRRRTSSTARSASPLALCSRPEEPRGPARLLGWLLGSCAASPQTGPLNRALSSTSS
Method: The binding of CRTh2 antagonists is determined using membranes prepared from human CRTh2-expressing Chinese Hamster Ovary cells (CHO.K1-CRTh2). To produce cell membranes CHO.K1-CRTh2 cells cultured in roller bottles are harvested using cell dissociation buffer (Invitrogen). The cells are pelleted by centrifugation (167 g, 5 min). The cell pellet is incubated in hypotonic buffer (15 mM Tris-OH, 2 mM MgCl2, 0.3 mM EDTA, 1 mM EGTA, 1×Complete™ tablet) at 4° C. for 30 minutes. At 4° C. cells are homogenized using a Polytron® (IKA Ultra Turrax T25) for 5 bursts of 1 second. The homogenate is centrifuged (Beckman Optima TM TL Ultracentrifuge, 48000 g, 30 minutes at 4° C.). The supernatant is discarded and the membrane pellet re-suspended in homogenisation buffer (75 mM Tris-OH, 12.5 mM MgCl2, 0.3 mM EDTA, 1 mM EGTA, 250 mM Sucrose, 1×Complete™ tablet. Membrane preparations are aliquoted and stored at […]. The protein content is estimated using Bradford Protein Assay Dye (Bio Rad).
The binding of [^3H]-PGD2 (157 Ci/mmol) to CHO.K1-CRTh2 membranes is determined in the absence (total binding) and presence (non-specific binding) of unlabelled PGD2 (1 μM). Subtraction of the cpm (counts per minute) of [^3H]-PGD2 binding in presence of excess unlabelled PGD2 from that observed in the absence of excess unlabelled PGD2 is defined as specific binding. Active CRTh2 antagonists are able to compete with [^3H]-PGD2 for binding to the CRTh2 receptor and are identified in a decrease in the number of cpm bound.
The assay is performed in Greiner U-bottomed 96 well-plates, in a final volume of 100 μL per well. CHO.K1-CRTh2 membranes were diluted in assay buffer (10 mM HEPES-KOH (pH 7.4), 1 mM EDTA and 10 mM MnCl2) and 10 μg are added to each well [^3H]-PGD2 is diluted in assay buffer and added to each well at a final concentration of 2.5 nM. To determine non-specific binding, [^3H]-PGD2 binding to the CRTh2 receptor is competed with using unlabelled PGD2 at a final well concentration of 1 μM. The experiment is done in triplicate, with reagents added to the wells as follows: • 25 μL assay buffer for total binding or • 25 μL PGD2 to determine non-specific binding • 25 μL [^3H]PGD2 • […] • 25 μL test compound in DMSO/assay buffer
The plates are incubated at room temperature on a shaker for 1 hour, and then harvested (Tomtec Harvester 9600) onto GF/C filter plates using wash buffer (10 mM HEPES-KOH, pH 7.4). The plate is dried for 2 hours, prior to addition of Micro-Scint 20™ (50 μL) and sealing with TopSeal-S™. Plates are then counted using a Packard Top Count instrument, Plates are then read on the Packard Topcount with the 3H Scintillation program (1 min./well).
Ki (dissocation constant for the inhibition) values for the CRTh2 antagonists are reported. Ki values are determined using Sigma Plot™ software, using the Cheng-Prussoff equation.
(§1) where S is the concentration of radioligand and Kd is the dissociation constant. CRTH2 cAMP Functional Assay Protocol

[2] = molecular target: T1, human CRTh2; assay: CRTH2 cAMP functional assay in CHO.K1-CRTh2 cells; assay type: cell-based; details: inhibition of PGD2-mediated attenuation of forskolin-induced cAMP accumulation in CHO.K1-CRTh2 cells
Method: as §1
This assay is conducted in CHO.K1-CRTh2 cells. cAMP is generated in the cell by stimulating cells with 5 μM forskolin, an adenylate cyclase activator. PGD2 is added to activate the CRTh2 receptor which results in the attenuation of the forskolin-induced cAMP accumulation. Potential CRTh2 antagonists are tested for their ability to inhibit the PGD2− mediated attenuation of the forskolin-induced cAMP accumulation in CHO.K1-CRTh2 cells.
For each concentration value on the dose-response curve, test compounds are prepared in assay stimulation buffer (HBSS, 5 mM HEPES, 10 μM IBMX ±0.1% human serum albumin) containing DMSO (3% vol/vol) and 5 μL/well is added to an assay plate (384 well white optiplate).
CHO.K1-CRTh2 cultured in tissue culture flasks are washed with PBS and harvested with dissociation buffer. Cells are washed with PBS and re-suspended in stimulation buffer to a concentration of 0.4×10^6/mL and added to the assay plate (10 μL/well).
The assay plate is incubated at room temperature on a shaker for 15 minutes.
A mix of agonist (10 nM Prostaglandin D2) and 5 μM forskolin is prepared in assay stimulation buffer and added to the assay plate (5 μL/well).
In addition, a cAMP standard is serially diluted in assay stimulation buffer and added to separate empty wells on the assay plate (20 μL/well). The cAMP standard allows for the quantification of cAMP generated in CHO.K1-CRTH2 cells.
The assay plate is incubated at room temperature on a shaker for 60 minutes.
Cell lysis buffer (Lysis buffer: Milli-Q H2O, 5 mM HEPES, 0.3% Tween-20, 0.1% human serum albumin) is added to a bead mix (containing Alphascreen™ anti-cAMP acceptor beads 0.06 units/μL, Alphascreen™ streptavidin-coated donor beads 0.06 units/μL, biotinylated cAMP 0.06 units/μL, 10 μM IBMX) is prepared under darkened conditions 60 minutes prior to addition to the assay plate. The resulting lysis mix is added to all wells of the assay plate (40 μL/well).
The assay plate is sealed with Topseal-S™ and incubated in the dark at room temperature on a shaker for 45 minutes. The plate is then counted using a Packard Fusion™ instrument.
The resulting counts per minute are converted to nM cAMP by using the prepared cAMP standard curve. IC50 values (concentration of CRTh2 antagonist required to inhibit 50% of the PGD2-mediated attenuation of forskolin-induced cAMP accumulation in CHO.K1-CRTh2 cells) are then determined using Prism™ software.

**Q.** Which Ki [1] does the source give for `N#Cc1cn(CC(=O)O)cc1-c1cc(C(F)(F)F)cc(Cl)c1F` [Example 25, [3-(3-Chloro-2-fluoro-5-trifluoromethyl-phenyl) -4-cyano-pyrrol-1-yl]-acetic acid] here?
**A.** 40 nM

**Q.** And the IC50 [2]?
**A.** 25 nM

**Q.** What does the source list for `N#Cc1cn(CC(=O)O)cc1-c1cccc2c1OC(F)(F)O2` [Example 3]?
**A.** Ki [1]: 244 nM; IC50 [2]: 846 nM

**Q.** How did the Ki [1] turn out when `N#Cc1cn(CC(=O)O)cc1-c1cccc(C(F)(F)F)c1` [Example 12, [3-Cyano-4-(3-trifluoromethyl-phenyl)-pyrrol-1-yl]-acetic acid] was run?
**A.** 172 nM

**Q.** And the IC50 [2]?
**A.** 69 nM

**Q.** For `CCCCNS(=O)(=O)c1cc(-c2cn(CC(=O)O)cc2C#N)cc(C(F)(F)F)c1` [Example 45, [3-(3-butylsulfamoyl-5-trifluoromethyl-phenyl)-4-cyano-pyrrol-1-yl]-acetic acid], which Ki [1] is on record?
**A.** 6 nM

**Q.** And the IC50 [2]?
**A.** 16 nM

**Q.** How did the Ki [1] turn out when `N#Cc1cn(CC(=O)O)cc1-c1cc(C(F)(F)F)cc(S(=O)(=O)N2CCCCC2)c1` [Example 40, {3-Cyano-4-[3-(Piperidine-1-Sulfonyl)-5-Trifluoromethyl-Phenyl]Pyrrol-1-yl}-Acetic Acid] was run?
**A.** 2 nM

**Q.** What about the IC50 [2] of the same compound?
**A.** 12 nM

**Q.** How did the Ki [1] turn out when `N#Cc1cn(CC(=O)O)cc1-c1cc(C(F)(F)F)ccc1C(F)(F)F` [Example 21, [3-(2,5-Bis-trifluoromethyl-phenyl)-4-cyano-pyrrol-1-yl]-acetic acid] was run?
**A.** 96 nM

**Q.** And the IC50 [2]?
**A.** 147 nM

**Q.** Which Ki [1] does the source give for `N#Cc1cn(CC(=O)O)cc1-c1cc(C(F)(F)F)cc(S(=O)(=O)N2CCCC2)c1` [Example 42, {3-cyano-4-[3-(pyrrolidine-1-sulfonyl)-5-trifluoromethyl-phenyl]-pyrrol-1-yl}-acetic acid] here?
**A.** 6 nM

**Q.** What about the IC50 [2] of the same compound?
**A.** 17 nM

**Q.** For `N#Cc1cn(CC(=O)O)cc1-c1cc(C(F)(F)F)ccc1Cl` [Example 17, [3-(2-Chloro-5-trifluoromethyl-phenyl)-4-cyano-pyrrol-1-yl]-acetic acid], which Ki [1] is on record?
**A.** 89 nM

**Q.** What about the IC50 [2] of the same compound?
**A.** 161 nM

**Q.** With `N#Cc1cn(CC(=O)O)cc1-c1cc(Cl)cc(S(=O)(=O)N2CCCCC2)c1` [Example 53, {3-[3-Chloro-5-(Piperidine-1-Sulfonyl)-Phenyl]-4-Cyano-Pyrrol-1-yl}-Acetic Acid] as the compound, how does the Ki [1] read?
**A.** 2 nM

**Q.** And the IC50 [2]?
**A.** 46 nM

**Q.** Which results are given for `N#Cc1cn(CC(=O)O)cc1-c1cc(C(F)(F)F)cc(C(F)(F)F)c1` [Example 1, [3-(3,5-Bis-Trifluoromethyl-Phenyl)-4-Cyano-Pyrrol-1-yl]-Acetic Acid]?
**A.** Ki [1]: 10 nM; IC50 [2]: 28 nM

**Q.** Which Ki [1] does the source give for `N#Cc1cn(CC(=O)O)cc1-c1cc(C(F)(F)F)cc(S(=O)(=O)NC2CCC2)c1` [Example 50, [3-cyano-4-(3-cyclobutylsulfamoyl-5-trifluoromethyl-phenyl)-pyrrol-1-yl]-acetic acid] here?
**A.** 4 nM

**Q.** And the IC50 [2]?
**A.** 9 nM

**Q.** With `N#Cc1cn(CC(=O)O)cc1-c1cc(Cl)cc(Cl)c1` [Example 2, [3-Cyano-4-(3,5-Dichloro-Phenyl)-Pyrrol-1-yl]-Acetic Acid] as the compound, how does the Ki [1] read?
**A.** 34 nM

**Q.** And the IC50 [2]?
**A.** 57 nM

**Q.** What does the source list for `N#Cc1cn(CC(=O)O)cc1-c1cccc(Cl)c1` [Example 8, [3-(3-Chloro-phenyl)-4-cyano-pyrrol-1-yl]-acetic acid]?
**A.** Ki [1]: 163 nM; IC50 [2]: 255 nM

**Q.** For `N#Cc1cn(CC(=O)O)cc1-c1cc(Cl)ccc1Cl` [Example 15, [3-Cyano-4-(2,5-dichloro-phenyl)-pyrrol-1-yl]-acetic acid], which Ki [1] is on record?
**A.** 144 nM

**Q.** What about the IC50 [2] of the same compound?
**A.** 282 nM

**Q.** What does the source list for `CN(C)S(=O)(=O)c1cc(-c2cn(CC(=O)O)cc2C#N)cc(C(F)(F)F)c1` [Example 64, [3-Cyano-4-(3-Dimethylsulfamoyl-5-Trifluoromethyl-Phenyl)-Pyrrol-1-yl]-Acetic Acid]?
**A.** Ki [1]: 42 nM; IC50 [2]: 14 nM
